From US20140315975A1, “APOPTOSIS-INDUCING AGENT” (NITTO DENKO CORPORATION, priority 2011, published 2014)

Tests used:
Type in all cases: cell-based
[1] = system: K-RAS mutation-positive colon carcinoma cell line M7609; test: Total cell count after siRNA transfection (hemocytometer); conditions: after culturing for 4 days, versus no suppression (FIG. 1b)
Protocol: K-RAS mutation-positive colon carcinoma cell line M7609 was cultured in 10% fetal bovine serum (FBS)-containing RPMI-1640 medium at 37° C. under an atmosphere containing 5% CO2. Furthermore, 100 U/mL penicillin and 100 μg/mL streptomycin were added as antibiotics to the medium.
On the day before transfection, M7609 cells were plated on a 100 mm plastic tissue culture dish using 10% FBS-containing RPMI-1640 medium containing no antibiotic so as to give 1×10^6 cells/10 mL. 600 pmol of GST-π siRNA (SEQ ID No: 1: […], siRNA ID#2385, Ambion) was added to 1 mL of Opti-MEM I Reduced Serum Medium (GIBCO) and mixed gently. […] On the 1st, 2nd, 3rd, and 4th days after transfection with GST-π siRNA, the number of cells was counted, and knockdown of GST-π was examined. Knockdown of GST-π was analyzed by a western blot method as described below.
Western blot analysis of GST-π knockdown was carried out using cells harvested at above-mentioned each point of time after transfection with GST-π siRNA. […] The cell extract thus obtained was subjected to quantitative protein analysis using a Micro BCA Protein Assay Kit (Thermo SCIENTIFIC) (GST-π siRNA transfectant: 4.35 μg/μL, Scramble siRNA transfectant: 4.56 μg/μL). […] A reaction with a chemiluminescent substrate was then carried out at room temperature for 1 min., and then this chemiluminescence was detected using an X-ray film. […]

[2] = system: Raf-1; test: Immunoprecipitation of Raf-1 and anti-ubiquitin western blot; conditions: M7609 cells
Protocol: In the same way as for Example 1 (3), on the 2nd day after siRNA transfection culturing was carried out for 16 hours in a serum-free medium, and a cell extract was collected. The cell extract thus obtained was subjected to quantitative protein analysis using a Micro BCA Protein Assay Kit (Scramble siRNA: 8.88 μg/μL, GST-π siRNA: […]). 0.5 μg of the cell extract was mixed with anti-Raf-1 antibody conjugated to Dynabeads Protein G (Invitrogen), incubation was carried out at 4° C. for 2 hours while gently mixing in a shaker to thus isolate Raf-1 protein, and then a western blot analysis was carried out in the same way as for Example 1 (3) using an anti-ubiquitin antibody (Santa Cruz). Phosphorylation modification of Ser621, which is involved in inhibition of Raf-1 proteasome degradation, was investigated in the same manner using an anti-p-Raf-1 (Ser621) antibody (MILLIPORE).

[3] = system: M7609 cells; test: Autophagy induction by LC3 immunofluorescence staining; conditions: 1 to 4 days after transfection (FIG. 10)
Protocol: Induction of autophagy by GST-π knockdown was analyzed by immunofluorescence staining with LC3, which is an autophagy-specific marker protein. GST-π knockdown cells obtained by the procedure of Example 1 (2) were plated on a cover slip placed in a 35 mm plastic tissue culture dish so as to give 1×10^5 cells/2 mL. After the medium was aspirated, 4% paraformaldehyde in PBS was added, and incubation was carried out at room temperature for 10 min., thus fixing the cells. Permeabilization of the cells was carried out using 0.5% Triton X-100 in PBS on ice for 5 min. After washing with cold PBS for 10 min., a reaction with anti-LC3B antibody (Invitrogen) diluted with 1% BSA containing PBS was carried out within a humidity chamber at 37° C. for 1 hour. A secondary antibody reaction was carried out using Alexa Fluor488-labeled rabbit antibody (Invitrogen) at 37° C. for 1 hour. Mounting on a slide glass was carried out using Prolong Gold antifade reagent with DAPI, and incubation was carried out at 4° C. for 16 hours. Washing after the antibody reaction was carried out three times using PBS at 37° C. for 5 min. Autophagy-positive cells at the time of examination with a fluorescence microscope were defined as cells having a spot-like LC3 signal present in the cytoplasm.

[4] = system: M7609 cells; test: Autophagy induction by electron microscope examination; conditions: 2 days after transfection, electron microscope (FIG. 7)
Protocol: On the 1st day after siRNA transfection in Example 1 (2), the cells were plated on an 8-well culture slide for tissue culture so as to give 0.4×10^5 cells/0.5 mL. Fixation was carried out using 2.5% glutaraldehyde in 0.1 M cacodylic acid buffer (pH 7.4) for hour, and after rinsing with 0.1 M cacodylic acid buffer post-fixation was carried out using 1% OsO4 and 1.5% potassium ferrocyanide for 2 hours. After dehydration was carried out three times with ethanol for 10 min., embedding in an epoxy resin (TAAB Laboratories Equipment) was carried out. An ultrathin section was prepared using a diamond knife, electron staining was carried out using uranyl acetate and lead citrate, and the section was examined using an electron microscope (Hitachi Transmission Electron Microscope H-7500, Hitachi High-Technologies Corporation).

Q: For “GST-π siRNA: GST-π siRNA (SEQ ID No: 1: GGGAGGCAAGACCUUCAUUTT, siRNA ID#2385, Ambion) (chemistry not given here)”, which number of cells [1] is on record?
A: The number of cells was “markedly less”.

Q: What about the “ubiquitination of Raf-1” value ([2]; 2nd day after transfection, compared with Scramble siRNA (FIG. 3)) of the same substance?
A: The value was “enhanced”.

Q: And the “expression of Raf protein and Ser621 phosphorylated Raf protein (p-Raf-1 (S621))” value ([2]; Raf-1 immunoprecipitate (FIG. 3))?
A: Its value is “decreased slightly”.

Q: What about the “proportion of autophagy-positive cells (spot-like LC3 signal per 500 cells)” value [3] of the same substance?
A: The value was “increased rapidly after treatment, peaked on 2nd day, and then decreased”.

Q: What about the autophagosome formation [4] of the same substance?
A: Its autophagosome formation is “autophagosome was formed”.
